Data: ChEMBL document CHEMBL1201862, “PubChem BioAssay data set” (2004)
Blank lines part the entries; values can stand above or below the compound they belong to. Activity calls are given as the source filed them.

Columns and labels:
[1] = biological target: T1, Voltage-gated N-type calcium channel alpha-1B subunit/Amyloid beta A4 precursor protein-binding family A member 1 (Homo sapiens, UniProt Q00975+Q02410); format: protein assay
[2] = biological target: T1, Voltage-gated N-type calcium channel alpha-1B subunit/Amyloid beta A4 precursor protein-binding family A member 1; format: protein assay; remark: listed apart in the source
[3] = biological target: Induced myeloid leukemia cell differentiation protein Mcl-1 (Homo sapiens, UniProt Q07820); format: functional
Aminopeptidase N = biological target: T2, Aminopeptidase N (Plasmodium falciparum FcB1/Columbia, UniProt O96935); assay: malaria alanyl aminopeptidase activity blockers – biochemical, fluorogenic H-Leu-NHMec substrate, 1536-well (AID 1445); set-up: species or system Plasmodium falciparum 3D7, 3D7
T2 sequence (O96935 whole entry): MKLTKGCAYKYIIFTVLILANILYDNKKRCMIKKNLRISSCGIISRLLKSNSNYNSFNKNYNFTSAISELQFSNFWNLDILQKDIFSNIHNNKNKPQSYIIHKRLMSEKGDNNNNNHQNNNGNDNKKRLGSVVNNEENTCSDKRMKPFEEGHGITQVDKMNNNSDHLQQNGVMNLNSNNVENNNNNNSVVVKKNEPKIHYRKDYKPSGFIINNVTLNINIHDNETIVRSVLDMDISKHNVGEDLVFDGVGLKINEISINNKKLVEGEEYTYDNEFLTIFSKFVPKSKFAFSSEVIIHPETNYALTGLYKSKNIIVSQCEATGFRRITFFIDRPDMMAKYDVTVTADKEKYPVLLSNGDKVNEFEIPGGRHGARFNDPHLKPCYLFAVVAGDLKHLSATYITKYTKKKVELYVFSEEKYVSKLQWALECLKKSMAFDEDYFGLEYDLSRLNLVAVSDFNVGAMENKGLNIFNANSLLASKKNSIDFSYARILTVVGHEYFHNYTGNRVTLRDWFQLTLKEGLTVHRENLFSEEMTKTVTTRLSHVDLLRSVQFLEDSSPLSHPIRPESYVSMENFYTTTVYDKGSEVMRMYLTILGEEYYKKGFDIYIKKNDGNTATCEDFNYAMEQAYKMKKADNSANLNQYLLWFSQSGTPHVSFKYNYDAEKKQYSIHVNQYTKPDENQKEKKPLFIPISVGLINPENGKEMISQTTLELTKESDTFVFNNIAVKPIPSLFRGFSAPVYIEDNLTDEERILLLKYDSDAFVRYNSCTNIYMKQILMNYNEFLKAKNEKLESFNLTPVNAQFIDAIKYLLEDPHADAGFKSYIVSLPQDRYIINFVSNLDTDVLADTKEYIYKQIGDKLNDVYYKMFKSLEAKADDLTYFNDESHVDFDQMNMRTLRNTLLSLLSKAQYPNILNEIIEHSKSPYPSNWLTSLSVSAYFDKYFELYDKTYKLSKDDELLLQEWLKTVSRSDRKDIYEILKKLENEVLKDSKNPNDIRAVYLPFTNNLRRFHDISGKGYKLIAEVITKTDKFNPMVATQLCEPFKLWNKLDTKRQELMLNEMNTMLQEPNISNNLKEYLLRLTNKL

[4] = biological target: T3, Acyl-homoserine lactone acylase PvdQ (Pseudomonas aeruginosa (strain LESB58), UniProt Q9I194); assay: PvdQ acylase enzyme activity blockers – biochemical, fluorescence, plate reader and imaging, cherry-picks, dose response (AID 493231)
T3 sequence (Q9I194 whole entry): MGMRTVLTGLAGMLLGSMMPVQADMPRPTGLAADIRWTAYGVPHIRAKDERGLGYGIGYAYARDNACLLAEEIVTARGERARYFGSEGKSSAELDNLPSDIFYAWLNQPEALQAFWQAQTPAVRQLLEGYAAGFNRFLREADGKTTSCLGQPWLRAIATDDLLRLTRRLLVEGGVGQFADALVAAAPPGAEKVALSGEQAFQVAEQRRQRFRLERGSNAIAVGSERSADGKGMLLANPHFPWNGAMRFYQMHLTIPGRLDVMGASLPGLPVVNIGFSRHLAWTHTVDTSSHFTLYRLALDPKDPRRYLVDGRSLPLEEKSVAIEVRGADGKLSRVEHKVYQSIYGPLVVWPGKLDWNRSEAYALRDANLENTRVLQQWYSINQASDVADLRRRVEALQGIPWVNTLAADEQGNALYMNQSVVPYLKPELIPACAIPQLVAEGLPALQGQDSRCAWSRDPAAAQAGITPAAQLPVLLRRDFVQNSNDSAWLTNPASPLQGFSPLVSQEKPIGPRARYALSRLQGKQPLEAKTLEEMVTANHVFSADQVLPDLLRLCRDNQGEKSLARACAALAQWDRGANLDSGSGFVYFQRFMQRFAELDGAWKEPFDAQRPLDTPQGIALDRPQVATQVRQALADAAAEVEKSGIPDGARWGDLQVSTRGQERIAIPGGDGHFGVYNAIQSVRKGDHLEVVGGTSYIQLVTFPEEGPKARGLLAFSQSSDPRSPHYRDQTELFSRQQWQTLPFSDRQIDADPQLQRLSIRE

CAAX prenyl protease 2 = biological target: T4, CAAX prenyl protease 2 (Saccharomyces cerevisiae S288c, UniProt Q03530); format: biochemical
T4 sequence (Q03530 whole entry): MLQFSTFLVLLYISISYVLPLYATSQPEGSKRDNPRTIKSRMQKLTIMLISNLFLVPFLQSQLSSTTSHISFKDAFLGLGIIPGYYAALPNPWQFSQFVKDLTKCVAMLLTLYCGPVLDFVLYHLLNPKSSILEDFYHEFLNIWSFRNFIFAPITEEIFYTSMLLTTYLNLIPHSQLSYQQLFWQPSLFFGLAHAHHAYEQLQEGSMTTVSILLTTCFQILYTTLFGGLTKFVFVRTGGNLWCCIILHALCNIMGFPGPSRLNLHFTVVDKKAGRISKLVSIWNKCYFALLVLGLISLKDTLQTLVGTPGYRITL

T1 sequence (Q00975 whole entry): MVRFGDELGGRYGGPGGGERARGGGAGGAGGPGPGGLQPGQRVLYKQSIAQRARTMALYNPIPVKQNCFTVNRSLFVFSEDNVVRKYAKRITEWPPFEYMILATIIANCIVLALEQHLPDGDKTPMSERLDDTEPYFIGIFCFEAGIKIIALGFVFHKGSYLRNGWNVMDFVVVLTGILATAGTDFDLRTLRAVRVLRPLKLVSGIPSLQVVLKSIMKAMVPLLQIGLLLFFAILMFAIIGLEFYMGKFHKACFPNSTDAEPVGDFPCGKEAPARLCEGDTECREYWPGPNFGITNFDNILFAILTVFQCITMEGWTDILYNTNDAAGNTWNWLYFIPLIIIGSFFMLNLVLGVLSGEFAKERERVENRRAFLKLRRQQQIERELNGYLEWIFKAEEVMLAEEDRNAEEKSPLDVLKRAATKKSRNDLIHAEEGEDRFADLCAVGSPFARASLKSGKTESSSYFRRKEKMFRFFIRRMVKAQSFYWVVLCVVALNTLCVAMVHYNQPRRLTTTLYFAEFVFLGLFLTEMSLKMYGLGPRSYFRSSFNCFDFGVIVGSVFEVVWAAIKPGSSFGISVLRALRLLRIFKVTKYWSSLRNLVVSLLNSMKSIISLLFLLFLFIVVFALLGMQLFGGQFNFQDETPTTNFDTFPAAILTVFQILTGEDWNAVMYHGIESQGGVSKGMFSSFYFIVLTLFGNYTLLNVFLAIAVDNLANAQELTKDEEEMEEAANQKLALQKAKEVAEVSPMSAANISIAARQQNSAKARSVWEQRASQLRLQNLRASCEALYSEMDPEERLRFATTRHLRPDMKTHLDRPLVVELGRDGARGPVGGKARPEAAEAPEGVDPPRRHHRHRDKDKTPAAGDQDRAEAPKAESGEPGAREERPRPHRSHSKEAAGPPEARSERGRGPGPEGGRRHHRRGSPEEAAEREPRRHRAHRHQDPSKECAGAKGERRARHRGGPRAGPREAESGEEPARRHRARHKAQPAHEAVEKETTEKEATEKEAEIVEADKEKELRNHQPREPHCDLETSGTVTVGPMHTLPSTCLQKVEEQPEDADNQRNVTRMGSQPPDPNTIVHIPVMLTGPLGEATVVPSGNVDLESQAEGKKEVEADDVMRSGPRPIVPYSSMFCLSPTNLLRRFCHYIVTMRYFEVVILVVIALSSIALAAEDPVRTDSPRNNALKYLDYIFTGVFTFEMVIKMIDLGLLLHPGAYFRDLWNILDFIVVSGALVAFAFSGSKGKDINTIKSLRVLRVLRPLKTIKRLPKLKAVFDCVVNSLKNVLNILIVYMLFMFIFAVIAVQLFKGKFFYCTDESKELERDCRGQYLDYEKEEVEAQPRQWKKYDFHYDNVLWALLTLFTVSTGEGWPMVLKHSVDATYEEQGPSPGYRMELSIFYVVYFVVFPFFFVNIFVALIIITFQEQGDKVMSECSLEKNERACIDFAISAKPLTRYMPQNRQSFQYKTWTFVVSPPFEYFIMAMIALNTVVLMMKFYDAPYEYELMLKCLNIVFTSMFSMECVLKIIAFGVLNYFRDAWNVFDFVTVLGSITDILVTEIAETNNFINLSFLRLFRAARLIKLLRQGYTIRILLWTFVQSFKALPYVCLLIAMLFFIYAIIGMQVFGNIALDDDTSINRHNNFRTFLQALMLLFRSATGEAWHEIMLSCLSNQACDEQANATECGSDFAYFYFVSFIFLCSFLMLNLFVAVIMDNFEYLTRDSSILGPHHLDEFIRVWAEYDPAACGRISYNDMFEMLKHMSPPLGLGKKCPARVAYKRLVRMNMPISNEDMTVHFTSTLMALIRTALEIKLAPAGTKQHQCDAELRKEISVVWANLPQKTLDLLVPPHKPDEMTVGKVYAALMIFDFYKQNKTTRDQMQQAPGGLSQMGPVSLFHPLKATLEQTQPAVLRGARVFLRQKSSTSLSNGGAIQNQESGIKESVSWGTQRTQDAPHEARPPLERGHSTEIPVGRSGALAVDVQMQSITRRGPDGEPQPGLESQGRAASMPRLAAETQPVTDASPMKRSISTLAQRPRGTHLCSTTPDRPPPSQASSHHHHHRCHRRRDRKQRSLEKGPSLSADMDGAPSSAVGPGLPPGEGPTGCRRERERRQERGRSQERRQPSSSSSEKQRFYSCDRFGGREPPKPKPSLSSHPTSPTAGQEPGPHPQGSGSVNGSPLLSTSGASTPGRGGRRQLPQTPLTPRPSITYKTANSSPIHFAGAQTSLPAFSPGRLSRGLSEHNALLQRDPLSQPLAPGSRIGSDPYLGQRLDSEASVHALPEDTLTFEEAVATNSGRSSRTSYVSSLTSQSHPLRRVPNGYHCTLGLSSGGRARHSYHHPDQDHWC
T1 sequence (Q02410 whole entry): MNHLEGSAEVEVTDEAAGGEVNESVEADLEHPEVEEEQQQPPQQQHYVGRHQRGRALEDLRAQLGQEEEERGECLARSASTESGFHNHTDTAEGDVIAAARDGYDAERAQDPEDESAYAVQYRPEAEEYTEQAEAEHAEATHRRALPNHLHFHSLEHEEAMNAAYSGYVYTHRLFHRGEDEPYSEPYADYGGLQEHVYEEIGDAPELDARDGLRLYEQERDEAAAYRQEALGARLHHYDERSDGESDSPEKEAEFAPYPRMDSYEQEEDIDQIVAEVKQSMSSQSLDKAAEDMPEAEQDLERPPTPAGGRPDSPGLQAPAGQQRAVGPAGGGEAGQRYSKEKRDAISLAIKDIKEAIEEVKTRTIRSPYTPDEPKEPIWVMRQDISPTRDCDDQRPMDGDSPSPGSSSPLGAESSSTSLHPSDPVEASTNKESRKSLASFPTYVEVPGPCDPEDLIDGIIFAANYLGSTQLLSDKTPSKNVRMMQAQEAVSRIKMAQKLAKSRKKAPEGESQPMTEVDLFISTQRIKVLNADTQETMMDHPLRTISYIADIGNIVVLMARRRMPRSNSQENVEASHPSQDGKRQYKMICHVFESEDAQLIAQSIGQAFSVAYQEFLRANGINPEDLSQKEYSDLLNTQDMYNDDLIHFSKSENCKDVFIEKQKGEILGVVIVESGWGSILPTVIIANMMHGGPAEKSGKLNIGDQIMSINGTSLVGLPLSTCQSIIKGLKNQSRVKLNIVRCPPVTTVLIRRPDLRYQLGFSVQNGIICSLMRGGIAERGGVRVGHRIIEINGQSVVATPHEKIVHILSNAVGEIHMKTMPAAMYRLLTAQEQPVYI
Chain of Induced myeloid leukemia cell differentiation protein Mcl-1 (Q07820 whole entry): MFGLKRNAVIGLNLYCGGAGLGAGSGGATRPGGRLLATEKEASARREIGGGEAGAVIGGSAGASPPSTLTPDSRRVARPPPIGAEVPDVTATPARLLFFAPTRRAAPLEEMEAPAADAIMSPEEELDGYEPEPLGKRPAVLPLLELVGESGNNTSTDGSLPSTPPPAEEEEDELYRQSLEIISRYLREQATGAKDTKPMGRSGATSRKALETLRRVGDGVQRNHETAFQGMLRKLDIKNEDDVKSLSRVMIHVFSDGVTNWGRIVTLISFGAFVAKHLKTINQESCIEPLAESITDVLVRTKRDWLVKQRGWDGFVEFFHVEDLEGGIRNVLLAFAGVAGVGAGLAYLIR

Compound: O=C(NC1CCS(=O)(=O)C1)c1cccc(Br)c1 (stereo unspecified)
AC50 [4]: 8.94 µM (active)

Compound: CC1CCN(C(=O)C2CCN(S(=O)(=O)c3ccc(-n4cnnn4)cc3)CC2)CC1
AC50 (CAAX prenyl protease 2): 22.8 µM (active)

Compound: COc1cccc(C(=O)CC(C#N)c2ccc(F)cc2)c1 (stereo unspecified)
AC50 [4]: 6.55 µM (active)

Compound: CCOC(=O)N1CCN(c2ccc(Cl)cc2)CC1
AC50 [4]: 7.18 µM (active)

The remaining lines, values ahead:

IC50 [1]: > 50 µM (inactive)
IC50 [2]: 3.56 µM (active)
IC50 [3]: 4.2 µM (active)
Compound: CC(=O)Nc1ccc(C2=NN=C(Nc3cccc(S(=O)(=O)N(C)C)c3)SC2)cc1

IC50 (Aminopeptidase N): 107 µM (active)
Compound: Fc1ccc(N2N=C(c3cccs3)CC2c2ccco2)c(F)c1 (stereo unspecified)

IC50 [1]: > 50 µM (inactive)
IC50 [2]: 35.4 µM (active)
Compound: COC(=O)c1ccc(/C=C2/SC(=S)N(CCCC(=O)Nc3ccc(O)cc3)C2=O)cc1

IC50 (Aminopeptidase N): 50.2 µM (active)
Compound: O=C1N=C(NS(=O)(=O)Cc2ccccc2)S/C1=C/c1cccc([N+](=O)[O-])c1
